Consider four compounds from patent publication US9133137B2, “Derivatives of gefitinib” (Concert Pharmaceuticals, Inc., priority 2008, dated 2015).

A short description of the data set: Metabolic stability in human liver microsomes (in vitro t1/2). In kind it is in vitro ADME. To be noted: pooled human liver microsomes, pooled human liver microsomes 3.0 mg/mL, test compound 0.5 μM, NADPH, 37° C. How it is done:
Microsomal Assay: Human liver microsomes (20 mg/mL) were obtained from Xenotech, LLC (Lenexa, Kans.). βnicotinamide adenine dinucleotide phosphate, reduced form (NADPH), magnesium chloride (MgCl2), and dimethyl sulfoxide (DMSO) were purchased from SigmaAldrich. The incubation mixtures were prepared according to Table 2:
Determination of Metabolic Stability: Two aliquots of this reaction mixture were used for a compound of this invention. The aliquots were incubated in a shaking water bath at 37° C. for 3 minutes. The test compound was then added into each aliquot at a final concentration of 0.5 μM. The reaction was initiated by the addition of cofactor (NADPH) into one aliquot (the other aliquot lacking NADPH served as the negative control). Both aliquots were then incubated in a shaking water bath at 37° C. Fifty microliters (50 μL) of the incubation mixtures were withdrawn in triplicate from each aliquot at 0, 5, 10, 20, and 30 minutes and combined with 50 μL of ice-cold acetonitrile to terminate the reaction. The same procedure was followed for gefitinib and 7-ethoxycoumarin, the positive control. Testing was done in triplicate.
Data analysis: The in vitro half-lives (t1/2s) for test compounds were calculated from the slopes of the linear regression of % parent remaining (ln) vs incubation time relationship using the following formula: in vitro t1/2=0.693/k, where k=[slope of linear regression of % parent remaining(ln)vs incubation time] Data analysis was performed using Microsoft Excel Software.
The metabolic stability of compounds of Formula A or I was tested using pooled liver microsomal incubations. Full scan LCMS analysis was then performed to detect major metabolites. Samples of the test compounds, exposed to pooled human liver microsomes, were analyzed using HPLCMS (or MS/MS) detection. For determining metabolic stability, multiple reaction monitoring (MRM) was used to measure the disappearance of the test compounds. For metabolite detection, Q1 full scans were used as survey scans to detect the major metabolites.

Where [1] appears, read: Experiment No. 1, read-out: t½ (min), Experiment No. 1.
The mark [2] stands for this setting: Experiment No. 2, read-out: t½ (min), Experiment No. 2.
Where [3] appears, read: Experiment No. 3, read-out: t½ (min), Experiment No. 3.
[4] abbreviates: average of experiments 1-3, read-out: t½ (min), Ave.

Where two headings read alike, the source gives them in different places.

As to `COc1cc2ncnc(Nc3ccc(F)c(Cl)c3)c2cc1OCCCN1CCOCC1` [Gefitinib, (3-chloro-4-fluoro-phenyl)-[7-methoxy-6-(3-morpholin-4-yl-propoxy)-quinazolin-4-yl]-amine], the half-life at 0.5 μM under setting [1] was found to be 19.4 min, the half-life at 0.5 μM under setting [2] was found to be 17.6 min, the half-life at 0.5 μM under setting [3] was 19.8 min and the half-life at 0.5 μM under setting [4] was 18.9 min.

As to `[2H]C([2H])([2H])Oc1cc2ncnc(Nc3ccc(F)c(Cl)c3)c2cc1OC([2H])([2H])C([2H])([2H])C([2H])([2H])N1C([2H])([2H])C([2H])([2H])OC([2H])([2H])C1([2H])[2H]` [Compound 101, N-(3-Chloro-4-fluorophenyl)-7-(methoxy-d3)-6-(3-(morpholino-d8)propoxy-d6)quinazolin-4-amine], the half-life at 0.5 μM by setting is: under setting [1], 24.3 min; under setting [2], 23.8 min; under setting [3], 23.1 min; under setting [4], 23.7 min.

`[2H]C([2H])([2H])Oc1cc2ncnc(Nc3ccc(F)c(Cl)c3)c2cc1OCCCN1CCOCC1` [Compound 104, N-(3-Chloro-4-fluorophenyl)-7-(methoxy-d3)-6-(3-morpholinopropoxy)quinazolin-4-amine]: the half-life at 0.5 μM reads like this: under setting [1], 22.5 min; under setting [2], 20.8 min; under setting [3], 21.8 min; under setting [4], 21.7 min.

For `[2H]C([2H])([2H])Oc1cc2ncnc(Nc3ccc(F)c(Cl)c3)c2cc1OC([2H])([2H])C([2H])([2H])C([2H])([2H])N1CCOCC1` [Compound 102, N-(3-Chloro-4-fluorophenyl)-7-(methoxy-d3)-6-(3-morpholino(propoxy-d6))quinazolin-4-amine], the half-life at 0.5 μM came out at 22.5 min under setting [1], 20.8 min under setting [2], 21.8 min under setting [3] and 21.7 min under setting [4].
